Laboratory results: PubChem BioAssay AID1963597 (National Center for Advancing Translational Sciences (NCATS), 2024)

These compounds were tested on human liver microsomes, metabolic stability half-life (assay: NCATS Human Liver Microsomal (HLM) Stability Profiling). Conditions: higher = more stable; screened at 1 µM (by protocol).
Description: Assay submitter (PI): Dr. Pranav Shah
NIH Center for Advancing Translational Sciences
Pharmacokinetic issues were the leading cause of drug attrition, accounting for approximately 40% of all cases before the turn of the century. To this end, several high-throughput in vitro assays like microsomal stability have been developed to evaluate the pharmacokinetic profiles of compounds in early stages of drug discovery. At NCATS, a single-point rat liver microsomal (RLM) stability assay is used as a Tier I assay, while human liver microsomal (HLM) stability is employed as a Tier II assay. While it is beneficial to have compound libraries screened for HLM stability, the increasing magnitude of hits routinely generated, and the time- and re-source-intensive nature of the assay makes it important to find alternatives. One strategy is to rely on in silico models that have been developed using data generated from these assays. Herein, we describe the development of an HLM stability prediction model using our in-house dataset of ~7,000 compounds, employing both traditional and advanced machine learning methods. Additionally, the strong correlation between our RLM and HLM data was further reinforced by the fact that our HLM model performance improved after adding RLM stability predictions as an input descriptor. […] The best model along with a subset of our dataset has been made publicly accessible on the NCATS@ADME website for the benefit of the greater drug discovery community.
Microsomal Stability Assay
The substrate depletion method, also called the in vitro t1/2 method was used to analyze test compounds. Incubation and liquid handling were carried out using a previously described method (Shah et al., 2016). Briefly, each reaction mixture (110 µL) consisted of a test article (1 µM), human liver microsomes (0.5 mg/mL), and NADPH regenerating system in phosphate buffer at pH 7.4. Samples were incubated in 384-well plates at 37 degrees C for 0, 5, 10, 15, 30 and 60 min. At each time point, 10 µL of the incubation mixture was aspirated into another 384-well plate which contained cold acetonitrile (ACN) with internal standard (albendazole). All plates were centrifuged at 3000 rpm for 20 min at 4 degrees C, and the supernatants were transferred to a 384-well injection plate. Sample quantification and analysis was performed using a previously described method (Shah et al., 2016, Siramshetty et al., 2020).
1: Shah, P. et al. An Automated High-Throughput Metabolic Stability Assay Using an Integrated High-Resolution Accurate Mass Method and Automated Data Analysis Software. Drug Metab Dispos 44, 1653-1661 (2016).
2: Siramshetty et al. Retrospective assessment of rat liver microsomal stability at NCATS: data and QSAR models. Sci Rep 26;10(1):20713 (2020).
Work on Cc1ccc(N2CCN(C(=O)C3CCN(c4ncnc5c4nc4n5CCCCC4)CC3)CC2)c(C)c1 yielded a half-life greater than 120 min. Work on CCCNC(=O)C1CCC(Cn2c(=O)c3sccc3n(CC(=O)NCc3ccccc3)c2=O)CC1 (configuration not stated) yielded a half-life of 11.2 min. With COc1ccc(Sc2ccc(NC(=O)c3ccccc3Cl)cc2C#N)cc1 the half-life was 31.4 min. CCOP(=S)(OCC)Oc1cc(Cl)c(Br)cc1Cl showed a half-life of 57.6 min. Cc1ccc(-c2nc3ccc(C)cn3c2CC(=O)N(C)C)cc1 gave a half-life greater than 120 min. Work on CC(Cc1ccccc1)NCc1ccccc1Cl (configuration not stated) yielded a half-life of 10.6 min. With COc1ccc(Oc2c(Cl)cnn(-c3cc(C)cc(C)c3)c2=O)cc1 the half-life was 17.4 min. For O=c1cc(-c2ccc(O)cc2)oc2cc(O)cc(O)c12, the half-life was 18.8 min. CN(C)c1cccc(Oc2cnc(Nc3cccc(O)c3)nc2)c1 showed a half-life of 21.9 min. Work on CC(C)(N)c1ccc(-c2nc3ccccc3nc2-c2ccccc2)cc1 yielded a half-life greater than 120 min. Work on Cc1cccc(C)c1NC(=O)c1ccccc1C(=O)O yielded a half-life greater than 120 min. With O=C(O)c1ccc(-c2ccc(N3CCCCCC3)nc2)cc1 the half-life was greater than 120 min. In the case of CCOc1ccccc1NC(=O)CSc1nc2ccccc2c2nc(CCn3cncc3C)nn12, the half-life is reported as 5.36 min. CC(C)(O)c1ccccc1CC[C@H](SCC1(CC(=O)O)CC1)c1cccc(/C=C/c2ccc3ccc(Cl)cc3n2)c1 gave a half-life of 36.5 min. CCN[C@H]1C[C@H](C)S(=O)(=O)C2SC(S(N)(=O)=O)C=C21 (some centres not stated) was tested, and the half-life was 105 min. C[C@]12Cc3cn[nH]c3C[C@@H]1CC[C@@H]1[C@@H]2CC[C@@]2(C)[C@H]1CC[C@]2(C)O showed a half-life of 24 min. Compound COc1cc2c(NC3CCN(CC4CCCCC4)CC3)nc(N3CCCN(C(C)C)CC3)nc2cc1OCCCN1CCCCC1 has a half-life of 30 min. CC(Cc1ccc2c(c1)OCO2)NCC(O)c1ccc(O)c(O)c1 (configuration not stated) gave a half-life of 18.6 min. With CCOC(=O)c1cc(C#N)c(N2CCC(C(=O)NS(=O)(=O)Cc3ccccc3)CC2)nc1C the half-life was 43.7 min. COc1cc(C(=O)NC(c2ccccc2Cl)c2cc(Cl)c3cccnc3c2O)cc(OC)c1OC (configuration not stated) showed a half-life of 25.6 min. With CNc1ccc2oc(C[C@H]3O[C@@]4(CC[C@H]3C)O[C@H](C(C)C(=O)c3ccc[nH]3)[C@H](C)C[C@H]4C)nc2c1C(=O)O (some centres not stated) the half-life was greater than 120 min. For Clc1ccc(N2CCN(c3ncnc4c3nc3n4CCCC3)CC2)cc1, the half-life was 37.9 min. Work on O=S(=O)(O)c1cc(I)c(O)c2ncccc12 yielded a half-life greater than 120 min. Work on CN/C(=C\[N+](=O)[O-])NCCSCc1csc(CN(C)C)n1 yielded a half-life greater than 120 min. Work on COc1cc(O)cc(O)c1 yielded a half-life greater than 120 min. Compound CCOc1ccc(Nc2nc(C)c(NC(=O)c3ccc(C)cc3)c(Nc3ccc(OCC)cc3)n2)cc1 has a half-life of 12.2 min. With CCOC(=O)C1(c2ccccc2)CCN(CCc2ccc(N)cc2)CC1 the half-life was 86.5 min. Compound Nc1ccccc1NC(=O)c1ccc(CNc2nccc(-c3cccnc3)n2)cc1 has a half-life greater than 120 min. In the case of COc1ccc(CC(=O)NCC(c2cccs2)S(=O)(=O)c2ccc(Cl)cc2)cc1 (configuration not stated), the half-life is reported as 4.19 min. O=C(O)c1ccc(OCCN2CCCCC2)cc1 was tested, and the half-life was greater than 120 min. COc1ccc(CN2CCN(C(c3ccc(F)cc3)c3ccc(F)cc3)CC2)c(OC)c1OC was tested, and the half-life was 13.1 min. CCC(CC)n1ccc2c(C(=O)NCc3c(C)cc(C)[nH]c3=O)cc(C#N)cc21 was tested, and the half-life was 3.94 min. In the case of CC1CCN(C(c2ccc(F)cc2)c2ccc(C(C)C(=O)O)cc2-c2ccc(C(F)(F)F)cc2)CC1 (configuration not stated), the half-life is reported as 115 min. In the case of CC(C)CCn1c(CN2CCN(C(=O)C(C)C)CC2)nc2c1c(=O)n(C)c(=O)n2C, the half-life is reported as 70.7 min. Compound CCCCOCCOC(=O)c1cccnc1 has a half-life of 0.66 min. In the case of O=C(Nc1c(-c2cccs2)nc2ccccn12)c1ccc(Cl)cc1, the half-life is reported as greater than 120 min. Compound Cc1ccc(C(C)(O)c2nc3ccccc3s2)c(C)c1 (configuration not stated) has a half-life of 4.22 min. Work on CCOc1cc(CNC(=O)c2ccc(C)c(NC(=O)c3nsc4ccccc34)c2)ccc1OC yielded a half-life of 7.12 min. Oc1c(Cl)cc(Cl)c2cccnc12 was tested, and the half-life was 25.2 min. O=C1CC2(CCCC2)CC(=O)N1CCNC[C@H]1COc2ccccc2O1 was tested, and the half-life was 8.26 min. In the case of CNS(=O)(=O)c1ccc(Cc2c(-c3cccc(-c4ccccc4)c3)[nH]n(-c3nc(C(=O)O)cs3)c2=O)cc1, the half-life is reported as greater than 120 min. CCSC(=O)N1CCCCCC1 gave a half-life of 27.7 min. For CCOC(=O)[C@H](CCc1ccccc1)N[C@H]1CCc2ccccc2N(CC(=O)O)C1=O, the half-life was 18.6 min. CCC(=C(c1ccc(OCCN2CCCC2)cc1)c1ccc(OCCN2CCCC2)cc1)c1ccccc1 gave a half-life greater than 120 min. Work on OCCCNc1cc(-c2ccnc(Nc3cccc(Cl)c3)n2)ccn1 yielded a half-life of 24.5 min. For O=C1CCC(c2ccccc2)(C2CCN(Cc3ccc(I)cc3)CC2)C(=O)N1 (configuration not stated), the half-life was greater than 120 min. In the case of CCn1ccnc1C[C@@H]1COc2ccccc2O1, the half-life is reported as 55.3 min. CCCc1nn(C)c2c(=O)[nH]c(-c3cc(S(=O)(=O)N4CCN(C)CC4)ccc3OCC)nc12 showed a half-life of 18.7 min. In the case of Cc1ncc(CSSCc2cnc(C)c(O)c2CO)c(CO)c1O, the half-life is reported as greater than 120 min. Work on CC1=NOC2(CCN(Cc3ccc(C#N)cc3)C2)C1 (configuration not stated) yielded a half-life greater than 120 min. Compound CC1(COc2ccc3c(c2)ncn3-c2ccc3cccc(N4CCC(N)CC4)c3n2)COC1 has a half-life of 75.4 min. COc1cc(C(=S)N2CCOCC2)cc(OC)c1OC was tested, and the half-life was greater than 120 min. For CC(C)(C)Nc1nc(Nc2ccc(C(N)=O)cc2)cc(N)c1C#N, the half-life was greater than 120 min. In the case of O=C(O)c1ccccc1-c1c2cc(Br)c(=O)c(Br)c-2oc2c(Br)c(O)c(Br)cc12, the half-life is reported as greater than 120 min. O=c1[nH]c2cccc(N3CCN(Cc4ccc(-c5ccccc5)cc4)CC3)c2o1 showed a half-life of 31.7 min. For CCCN(CCC)CCc1cccc2c1CC(=O)N2, the half-life was greater than 120 min. In the case of CC1(C)O[C@@H]2C[C@H]3[C@@H]4CCC5=CC(=O)C=C[C@]5(C)[C@@]4(F)[C@@H](O)C[C@]3(C)[C@]2(C(=O)CO)O1, the half-life is reported as 27.3 min. CC(C)Cc1ccc(CC(=O)O)cc1 gave a half-life greater than 120 min. In the case of CC1=C(CC(=O)O)c2cc(F)ccc2/C1=C\c1ccc(S(C)=O)cc1 (configuration not stated), the half-life is reported as greater than 120 min. Cc1ccc(NC(=O)Nc2cccs2)c(C)c1 showed a half-life of 23.8 min. In the case of Nc1cccc(CNC(=O)c2ccc(Oc3ccc(OCc4cccc(F)c4)cc3)nc2)c1, the half-life is reported as 29.7 min. For Cc1ccccc1C(=O)N1CCC(C(=O)N2CCC(N3Cc4ccccc4C3=O)CC2)CC1, the half-life was 93.1 min. Compound C=CC1=C(C(=O)O)N2C(=O)[C@@H](NC(=O)/C(=N\OCC(=O)O)c3csc(N)n3)[C@H]2SC1 has a half-life greater than 120 min. With CCN1CCCC1CNC(=O)c1cc(S(=O)(=O)CC)c(N)cc1OC (configuration not stated) the half-life was greater than 120 min. Work on CC(C)CCC(=O)CC1c2ccccc2C(=O)N1c1ccc2ccc(Cl)nc2n1 (configuration not stated) yielded a half-life of 7.76 min. In the case of ClCCN1CCCC1, the half-life is reported as 55.7 min. Work on O=C(Cn1cnc2onc(-c3ccc(F)cc3)c2c1=O)Nc1cccc(C(F)(F)F)c1 yielded a half-life of 40.4 min. c1ccc2c(c1)CCC[C@H]2C1=NCCN1 was tested, and the half-life was greater than 120 min. Compound COC(=O)c1ccc2c(C(=Nc3ccc(N(C)C(=O)CN4CCN(C)CC4)cc3)c3ccccc3)c(O)[nH]c2c1 has a half-life of 49.1 min. CCC(=O)N[C@@H]1Cc2ccccc2[C@H](c2ccccc2)C1 showed a half-life of 46.1 min. CCc1c(O)cc(O)c(C(=O)c2ccc(OCCN3CCOCC3)c(OC)c2)c1CC(=O)N(CCOC)CCOC showed a half-life of 41.4 min. In the case of CN1c2cc(C(=O)Nc3ccc(S(N)(=O)=O)cc3)ccc2C(=O)N2CCCCC21 (configuration not stated), the half-life is reported as 32.8 min. For Fc1ccccc1-c1nc2ccn(Cc3ccc(-c4ccc(C(F)(F)F)cc4C(F)(F)F)nn3)cc-2n1, the half-life was greater than 120 min. CC(=O)N1CCCc2cc(S(=O)(=O)Nc3ccc(OC(F)(F)F)cc3)ccc21 gave a half-life of 20.9 min. With O=C(O)COC(=O)Cc1ccccc1Nc1c(Cl)cccc1Cl the half-life was 2.83 min. In the case of Cc1cc(C)cc(NC(=O)Cc2ccc(OC(C)(C)C(=O)O)cc2)c1, the half-life is reported as greater than 120 min. For CCOC(=O)c1cccnc1, the half-life was 9.43 min.
